The results in this text go back to ChEMBL document CHEMBL1130231, “Betidamino acid scan of the GnRH antagonist acyline” (J Med Chem, 1997).

Holding throughout (assay type): functional, organism-based
Assay [1] concerns Rattus norvegicus. Put plainly: Ratio of ovulated rats to total number of rats determined in a anti-ovulatory assay by administering 2.5 microg of compound; 0/7.
The subject of assay [2] is Rattus norvegicus. Put plainly: Ratio of ovulated rats to total number of rats determined in a anti-ovulatory assay by administering 1 ug of compound; 3/3.
In assay [3] the test system is Rattus norvegicus. As to the kind of experiment: Ratio of ovulated rats to total number of rats determined in a anti-ovulatory assay by administering 2.5 microg of compound; 0/8.
The test system of assay [4] is Rattus norvegicus. Put plainly: Ratio of ovulated rats to total number of rats determined in a anti-ovulatory assay by administering 1 microg of compound; 2/7.
Assay [5] concerns Rattus norvegicus. Put plainly: Ratio of ovulated rats to total number of rats determined in a anti-ovulatory assay by administering 2.5 microg of compound; 5/5.
Assay [6] concerns Rattus norvegicus. Put plainly: Ratio of ovulated rats to total number of rats determined in a anti-ovulatory assay by administering 5 microg of compound; 0/8.
Assay [7] concerns Rattus norvegicus. Put plainly: Ratio of ovulated rats to total number of rats determined in a anti-ovulatory assay by administering 250 microg of compound; 2/2.
The test system of assay [8] is Rattus norvegicus. Put plainly: Ratio of ovulated rats to total number of rats determined in a anti-ovulatory assay by administering 2.5 microg of compound; 5/8.
Assay [9] concerns Rattus norvegicus. As to the kind of experiment: Ratio of ovulated rats to total number of rats determined in a anti-ovulatory assay by administering 100 microg of compound; 0/8.
The subject of assay [10] is Rattus norvegicus. As to the kind of experiment: Ratio of ovulated rats to total number of rats determined in a anti-ovulatory assay by administering 50 microg of compound; 3/8.
For assay [11], the system named is Rattus norvegicus. As to the kind of experiment: Ratio of ovulated rats to total number of rats determined in a anti-ovulatory assay by administering 250 microg of compound; 3/3.
Assay [12] has as its system Rattus norvegicus. Put plainly: Ratio of ovulated rats to total number of rats determined in a anti-ovulatory assay by administering 1 microg of compound; 6/14.
The test system of assay [13] is Rattus norvegicus. As to the kind of experiment: Ratio of ovulated rats to total number of rats determined in a anti-ovulatory assay by administering 2.5 microg of compound; 0/5.
Assay [14] relates to Rattus norvegicus. As to the kind of experiment: Ratio of ovulated rats to total number of rats determined in a anti-ovulatory assay by administering 25 microg of compound; 0/3.
In assay [15] the test system is Rattus norvegicus. As to the kind of experiment: Ratio of ovulated rats to total number of rats determined in a anti-ovulatory assay by administering 10 microg of compound; 2/6.
Assay [16] concerns Rattus norvegicus. As to the kind of experiment: Ratio of ovulated rats to total number of rats determined in a anti-ovulatory assay by administering 5 microg of compound; 4/8.
For assay [17], the system named is Rattus norvegicus. As to the kind of experiment: Ratio of ovulated rats to total number of rats determined in a anti-ovulatory assay by administering 2.5 microg of compound; 7/8.
Assay [18] has as its system Rattus norvegicus. As to the kind of experiment: Ratio of ovulated rats to total number of rats determined in a anti-ovulatory assay by administering 10 microg of compound; 4/8.
The test system of assay [19] is Rattus norvegicus. As to the kind of experiment: Ratio of ovulated rats to total number of rats determined in a anti-ovulatory assay by administering 0.5 microg of compound; 5/8.
Assay [20] deals with Rattus norvegicus. As to the kind of experiment: Ratio of ovulated rats to total number of rats determined in a anti-ovulatory assay by administering 1 microg of compound; 0/8.
Assay [21] relates to Rattus norvegicus. As to the kind of experiment: Ratio of ovulated rats to total number of rats determined in a anti-ovulatory assay by administering 1 ug of compound; 6/8.
For assay [22], the system named is Rattus norvegicus. Put plainly: Ratio of ovulated rats to total number of rats determined in a anti-ovulatory assay by administering 1.0 microg of compound; 3/4.
Assay [23] has as its system Rattus norvegicus. Put plainly: Ratio of ovulated rats to total number of rats determined in a anti-ovulatory assay by administering 5 microg of compound; 0/4.
For assay [24], the system named is Rattus norvegicus. Put plainly: Ratio of ovulated rats to total number of rats determined in a anti-ovulatory assay by administering 2.5 microg of compound; 1/7.
The test system of assay [25] is Rattus norvegicus. As to the kind of experiment: Ratio of ovulated rats to total number of rats determined in a anti-ovulatory assay by administering 250 microg of compound; 8/9.

Active and inactive are the calls of the source. The rule behind the calls is not given here.

For the molecule `CC(=O)Nc1ccc(C[C@H](NC(=O)[C@H](CO)NC(=O)[C@H](NC(=O)c2cccnc2)NC(=O)[C@@H](Cc2ccc(Cl)cc2)NC(=O)[C@@H](Cc2ccc3ccccc3c2)NC(C)=O)C(=O)N[C@H](Cc2ccc(NC(C)=O)cc2)C(=O)N[C@@H](CC(C)C)C(=O)N[C@@H](CCCCNC(C)C)C(=O)N2CCC[C@@H]2C(=O)N[C@H](C)C(N)=O)cc1`, the ov. rat/total entry in the assay with Rattus norvegicus [1] was “Active”. In the assay on Rattus norvegicus [2], the ov. rat/total result is “inactive”.
Regarding `CC(=O)Nc1ccc(C[C@H](NC(=O)[C@H](CO)NC(=O)[C@@H](Cc2cccnc2)NC(=O)[C@@H](Cc2ccc(Cl)cc2)NC(=O)[C@@H](NC(C)=O)NC(=O)c2ccc3ccccc3c2)C(=O)N[C@H](Cc2ccc(NC(C)=O)cc2)C(=O)N[C@@H](CC(C)C)C(=O)N[C@@H](CCCCNC(C)C)C(=O)N2CCC[C@@H]2C(=O)N[C@H](C)C(N)=O)cc1`, the ov. rat/total entry with Rattus norvegicus [3] is “Active”. In addition, the ov. rat/total result with Rattus norvegicus [4] was “Partially active”.
Consider `CC(=O)Nc1ccc(C[C@H](NC(=O)[C@H](CO)NC(=O)[C@@H](Cc2cccnc2)NC(=O)[C@@H](Cc2ccc(Cl)cc2)NC(=O)[C@H](NC(C)=O)NC(=O)c2ccc3ccccc3c2)C(=O)N[C@H](Cc2ccc(NC(C)=O)cc2)C(=O)N[C@@H](CC(C)C)C(=O)N[C@@H](CCCCNC(C)C)C(=O)N2CCC[C@@H]2C(=O)N[C@H](C)C(N)=O)cc1`, for which the ov. rat/total result with Rattus norvegicus [5] was “inactive”. Moreover, the ov. rat/total entry in the assay with Rattus norvegicus [6] was “Active”.
Consider `CC(=O)Nc1ccc(C[C@H](NC(=O)[C@H](CO)NC(=O)[C@@H](Cc2cccnc2)NC(=O)[C@@H](NC(=O)c2cnccn2)NC(=O)[C@@H](Cc2ccc3ccccc3c2)NC(C)=O)C(=O)N[C@H](Cc2ccc(NC(C)=O)cc2)C(=O)N[C@@H](CC(C)C)C(=O)N[C@@H](CCCCNC(C)C)C(=O)N2CCC[C@@H]2C(=O)N[C@H](C)C(N)=O)cc1`, for which, in the assay with Rattus norvegicus [7], the ov. rat/total result is “inactive”.
Consider `CC(=O)Nc1ccc(C[C@H](NC(=O)[C@@H](NC(=O)[C@@H](Cc2cccnc2)NC(=O)[C@@H](Cc2ccc(Cl)cc2)NC(=O)[C@@H](Cc2ccc3ccccc3c2)NC(C)=O)N(C)C=O)C(=O)N[C@H](Cc2ccc(NC(C)=O)cc2)C(=O)N[C@@H](CC(C)C)C(=O)N[C@@H](CCCCNC(C)C)C(=O)N2CCC[C@@H]2C(=O)N[C@H](C)C(N)=O)cc1` (single isomer, unassigned), for which the ov. rat/total entry in the assay on Rattus norvegicus [8] was “Partially active”.
For `CC(=O)Nc1ccc(C[C@H](NC(=O)[C@H](CO)NC(=O)[C@@H](Cc2cccnc2)NC(=O)[C@H](NC(=O)[C@@H](Cc2ccc3ccccc3c2)NC(C)=O)N(C)C(=O)c2ccc(Cl)cc2)C(=O)N[C@H](Cc2ccc(NC(C)=O)cc2)C(=O)N[C@@H](CC(C)C)C(=O)N[C@@H](CCCCNC(C)C)C(=O)N2CCC[C@@H]2C(=O)N[C@H](C)C(N)=O)cc1`, in the assay with Rattus norvegicus [9], the ov. rat/total entry is “Active”. Moreover, the ov. rat/total entry in the assay with Rattus norvegicus [10] was “Partially active”.
For `CC(=O)Nc1ccc(C[C@H](NC(=O)[C@H](CO)NC(=O)[C@@H](Cc2cccnc2)NC(=O)[C@H](NC(=O)c2cnccn2)NC(=O)[C@@H](Cc2ccc3ccccc3c2)NC(C)=O)C(=O)N[C@H](Cc2ccc(NC(C)=O)cc2)C(=O)N[C@@H](CC(C)C)C(=O)N[C@@H](CCCCNC(C)C)C(=O)N2CCC[C@@H]2C(=O)N[C@H](C)C(N)=O)cc1` (single isomer, unassigned), the ov. rat/total result with Rattus norvegicus [11] is “inactive”.
As to `CC(=O)Nc1ccc(C[C@H](NC(=O)[C@H](CO)NC(=O)[C@@H](NC(=O)c2cccnc2)NC(=O)[C@@H](Cc2ccc(Cl)cc2)NC(=O)[C@@H](Cc2ccc3ccccc3c2)NC(C)=O)C(=O)N[C@H](Cc2ccc(NC(C)=O)cc2)C(=O)N[C@@H](CC(C)C)C(=O)N[C@@H](CCCCNC(C)C)C(=O)N2CCC[C@@H]2C(=O)N[C@H](C)C(N)=O)cc1`, in the assay with Rattus norvegicus [12], the ov. rat/total result is “Partially active”. For the same molecule, in the assay with Rattus norvegicus [13], the ov. rat/total entry was “Active”.
Regarding `CC(=O)Nc1ccc(C[C@H](NC(=O)[C@H](CO)NC(=O)[C@@H](Cc2cccnc2)NC(=O)[C@@H](Cc2ccc(Cl)cc2)NC(=O)[C@H](Cc2ccc3ccccc3c2)NC(C)=O)C(=O)N[C@H](Cc2ccc(NC(C)=O)cc2)C(=O)N[C@@H](CC(C)C)C(=O)N[C@@H](CCCCNC(C)C)C(=O)N2CCC[C@@H]2C(=O)N[C@H](C)C(N)=O)cc1`, in the assay on Rattus norvegicus [14], the ov. rat/total entry is “Active”. Also, the ov. rat/total result in the assay on Rattus norvegicus [15] was “Partially active”.
For the molecule `CC(=O)Nc1ccc(C[C@H](NC(=O)[C@H](NC(=O)CO)NC(=O)[C@@H](Cc2cccnc2)NC(=O)[C@@H](Cc2ccc(Cl)cc2)NC(=O)[C@@H](Cc2ccc3ccccc3c2)NC(C)=O)C(=O)N[C@H](Cc2ccc(NC(C)=O)cc2)C(=O)N[C@@H](CC(C)C)C(=O)N[C@@H](CCCCNC(C)C)C(=O)N2CCC[C@@H]2C(=O)N[C@H](C)C(N)=O)cc1` (single isomer, unassigned), the ov. rat/total entry in the assay on Rattus norvegicus [16] is “Partially active”.
On to `CC(=O)Nc1ccc(C[C@H](NC(=O)[C@H](CO)NC(=O)[C@@H](Cc2cccnc2)NC(=O)[C@@H](Cc2ccc(Cl)cc2)NC(=O)[C@@H](Cc2ccc3ccccc3c2)NC(C)=O)C(=O)N[C@H](Cc2ccc(NC(C)=O)cc2)C(=O)N[C@@H](CC(C)C)C(=O)N[C@@H](C(=O)N2CCC[C@@H]2C(=O)N[C@H](C)C(N)=O)N(C)C(=O)CCNC(C)C)cc1` (single isomer, unassigned), for which the ov. rat/total result in the assay on Rattus norvegicus [17] was “inactive”. Further, the ov. rat/total entry in the assay on Rattus norvegicus [18] is “Partially active”.
As for `CC(=O)Nc1ccc(C[C@H](NC(=O)[C@H](CO)NC(=O)[C@@H](Cc2cccnc2)NC(=O)[C@@H](Cc2ccc(Cl)cc2)NC(=O)[C@@H](Cc2ccc3ccccc3c2)NC(C)=O)C(=O)N[C@H](Cc2ccc(NC(C)=O)cc2)C(=O)N[C@@H](CC(C)C)C(=O)N[C@H](C(=O)N2CCC[C@@H]2C(=O)N[C@H](C)C(N)=O)N(C)C(=O)CCNC(C)C)cc1` (single isomer, unassigned), the ov. rat/total result with Rattus norvegicus [3] and with Rattus norvegicus [20] was “Active” in each case. In addition, the ov. rat/total result with Rattus norvegicus [19] was “Partially active”.
For the molecule `CC(=O)Nc1ccc(C[C@H](NC(=O)[C@H](NC=O)NC(=O)[C@@H](Cc2cccnc2)NC(=O)[C@@H](Cc2ccc(Cl)cc2)NC(=O)[C@@H](Cc2ccc3ccccc3c2)NC(C)=O)C(=O)N[C@H](Cc2ccc(NC(C)=O)cc2)C(=O)N[C@@H](CC(C)C)C(=O)N[C@@H](CCCCNC(C)C)C(=O)N2CCC[C@@H]2C(=O)N[C@H](C)C(N)=O)cc1`, in the assay with Rattus norvegicus [21], the ov. rat/total entry was “inactive”. Moreover, the ov. rat/total entry with Rattus norvegicus [6] is “Active”.
For the molecule `CC(=O)Nc1ccc(C[C@H](NC(=O)[C@H](CO)NC(=O)[C@@H](Cc2cccnc2)NC(=O)[C@@H](Cc2ccc(Cl)cc2)NC(=O)[C@@H](Cc2ccc3ccccc3c2)NC(C)=O)C(=O)N[C@H](Cc2ccc(NC(C)=O)cc2)C(=O)N[C@@H](CC(C)C)C(=O)NC(NC(=O)CN=C(N)N)C(=O)N2CCC[C@@H]2C(=O)N[C@H](C)C(N)=O)cc1` (some centres not stated), in the assay on Rattus norvegicus [22], the ov. rat/total result was “inactive”. Moreover, the ov. rat/total result with Rattus norvegicus [23] and in the assay with Rattus norvegicus [24] was “Active” each time.
On to `CC(=O)Nc1ccc(C[C@H](NC(=O)[C@H](CO)NC(=O)[C@@H](Cc2cccnc2)NC(=O)[C@@H](NC(=O)c2c[nH]nc2N)NC(=O)[C@@H](Cc2ccc3ccccc3c2)NC(C)=O)C(=O)N[C@H](Cc2ccc(NC(C)=O)cc2)C(=O)N[C@@H](CC(C)C)C(=O)N[C@@H](CCCCNC(C)C)C(=O)N2CCC[C@@H]2C(=O)N[C@H](C)C(N)=O)cc1` (single isomer, unassigned), for which the ov. rat/total result with Rattus norvegicus [25] is “inactive”.
